What follows are compounds tested against T1, wild-type human ALK (cytoplasmic domain, amino acids 1058-1620, N-terminal GST fusion) (Homo sapiens, UniProt Q9UM73) (assay: ALK Inhibition in Enzyme Assay (Lance TR-FRET kinase assay)).
T1 construct: The cytoplasmic domain (amino acids 1058-1620) of wild-type human ALK; GST (N); made in house; host or cells: SF9 insect cells
Format: biochemical
How it was run: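 TR-FRET read-out (Eu-W1024 PT66 anti-phosphotyrosine plus streptavidin-allophycocyanin, 320 nm excitation) quantified biotinylated peptide phosphorylation by the purified kinase. Reaction ran 90 minutes at room temperature before quenching with 20 mM EDTA in Tris pH 7.5 buffer with NaCl, BSA and Tween-20.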

T1 sequence (Q9UM73 1058-1620): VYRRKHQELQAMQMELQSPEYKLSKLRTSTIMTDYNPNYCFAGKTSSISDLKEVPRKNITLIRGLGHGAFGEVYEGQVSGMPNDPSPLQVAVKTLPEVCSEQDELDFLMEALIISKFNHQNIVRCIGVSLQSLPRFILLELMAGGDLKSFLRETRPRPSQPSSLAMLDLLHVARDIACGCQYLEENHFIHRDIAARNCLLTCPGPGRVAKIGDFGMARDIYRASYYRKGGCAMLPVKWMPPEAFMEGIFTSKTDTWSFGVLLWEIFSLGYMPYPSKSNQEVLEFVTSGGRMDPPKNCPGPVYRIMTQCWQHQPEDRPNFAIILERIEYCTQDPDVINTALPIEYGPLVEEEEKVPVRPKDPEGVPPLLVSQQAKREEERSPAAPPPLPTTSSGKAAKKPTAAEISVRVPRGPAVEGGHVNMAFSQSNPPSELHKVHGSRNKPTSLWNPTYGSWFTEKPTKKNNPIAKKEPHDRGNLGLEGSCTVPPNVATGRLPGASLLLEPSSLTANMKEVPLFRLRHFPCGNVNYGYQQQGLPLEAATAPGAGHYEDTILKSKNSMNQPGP

Row | SMILES | IC50 [nM]
1 | CNC(=O)[C@H]1CC[C@H](n2/c(=N/C(=O)c3cc(F)cc(F)c3)[nH]c3cnc(OCCN4CCCCC4)cc32)CC1 [Example 249, (E)-3,5-Difluoro-N-(1-(trans-4-(methylcarbamoyl)cyclohexyl)-6-(2-(piperidin-1-yl)ethoxy)-1H-imidazo[4,5-c]pyridin-2(3H)-ylidene)benzamide] | 1000 to 5000
2 | CNC(=O)[C@H]1CC[C@H](n2/c(=N/C(=O)c3ccc(F)cc3)[nH]c3cnc(OCCN4CCCCC4)cc32)CC1 [Example 246, (E)-4-Fluoro-N-(1-(trans-4-(methylcarbamoyl)cyclohexyl)-6-(2-(piperidin-1-yl)ethoxy)-1H-imidazo[4,5-c]pyridin-2(3H)-ylidene)benzamide] | 100 to 1000
3 | CC(C)(O)C1CCN(CCOc2cc3c(cn2)[nH]/c(=N\C(=O)c2cccc(F)c2)n3[C@H]2CC[C@@H](C(=O)O)CC2)CC1 [Example 79, cis-4-((E)-2-(3-Fluorobenzoylimino)-6-(2-(4-(2-hydroxypropan-2-yl)piperidin-1-yl)ethoxy)-2,3-dihydro-1H-imidazo[4,5-c]pyridin-1-yl)cyclohexanecarboxylic acid] | 1000 to 5000
4 | N#C[C@]1(c2ccccn2)C[C@@H](n2/c(=N/C(=O)c3ccc(F)cc3)[nH]c3cnc(OCCN4CCCCC4)cc32)C1 [Example 240, (E)-N-(1-(trans-3-Cyano-3-(pyridin-2-yl)cyclobutyl)-6-(2-(piperidin-1-yl)ethoxy)-1H-imidazo[4,5-c]pyridin-2(3H)-ylidene)-4-fluorobenzamide] | 1000 to 5000
5 | O=C(Nc1nc2ccc(CO)cc2n1C12CC3CC(CC(C3)C1)C2)c1ccccc1 [Example 13, N-(1-adamantyl-6-(hydroxymethyl)-1H-benzo[d]imidazol-2-yl)benzamide] | 100 to 1000
6 | CC(C)(C)OC(=O)N1CCC(n2/c(=N/C(=O)c3ccccc3)[nH]c3cnc(OCCN4CCCCC4)cc32)CC1 [Example 64, (E)-tert-Butyl 4-(2-(benzoylimino)-6-(2-(piperidin-1-yl)ethoxy)-2,3-dihydro-1H-imidazo[4,5-c]pyridin-1-yl)piperidine-1-carboxylate] | 100 to 1000
7 | CC(C)NC(=O)[C@H]1CC[C@@H](n2/c(=N/C(=O)c3ccnnc3)[nH]c3cnc(OCCN4CCCCC4)cc32)CC1 [Example 97, (E)-N-(1-(cis-4-(Isopropylcarbamoyl)cyclohexyl)-6-(2-(piperidin-1-yl)ethoxy)-1H-imidazo[4,5-c]pyridin-2(3H)-ylidene)pyridazine-4-carboxamide] | 50 to 100
8 | COC(=O)[C@H]1CC[C@@H](n2c(NC(=O)c3cccc(C(F)(F)F)c3)nc3ccc(CN4CCCCC4)cc32)CC1 [Example 14, cis-Methyl 4-(6-(piperidin-1-ylmethyl)-2-(3-(trifluoromethyl)benzamido)-1H-benzo[d]imidazol-1-yl)cyclohexanecarboxylate] | < 50
9 | CC(C)NC(=O)[C@H]1CC[C@@H](n2/c(=N/C(=O)c3cccc(F)c3)[nH]c3cnc(N4CCC(C(C)(C)O)CC4)cc32)CC1 [Example 125, (E)-3-Fluoro-N-(6-(4-(2-hydroxypropan-2-yl)piperidin-1-yl)-1-(cis-4-(isopropylcarbamoyl)cyclohexyl)-1H-imidazo[4,5-c]pyridin-2(3H)-ylidene)benzamide] | < 50
10 | COC(=O)[C@H]1CC[C@@H](n2c(NC(=O)c3ccccc3)nc3ccc(CN4C(C)(C)CCCC4(C)C)cc32)CC1 [Example 19, cis-Methyl 4-(2-benzamido-6-((2,2,6,6-tetramethylpiperidin-1-yl)methyl)-1H-benzo[d]imidazol-1-yl)cyclohexanecarboxylate] | < 50
11 | CC(C)CNC(=O)[C@H]1CC[C@@H](n2/c(=N/C(=O)c3ccc(F)cc3)[nH]c3ccc(CN4CCCCC4)cc32)CC1 [Example 35, (E)-4-Fluoro-N-(1-(cis-4-(isobutylcarbamoyl)cyclohexyl)-6-(piperidin-1-ylmethyl)-1H-benzo[d]imidazol-2(3H)-ylidene)benzamide] | < 50
12 | CC(C)NC(=O)[C@H]1CC[C@@H](n2/c(=N/C(=O)c3ccc(C#N)c(F)c3)[nH]c3cnc(OCCN4CCCCC4)cc32)CC1 [Example 103, (E)-4-Cyano-3-fluoro-N-(1-(cis-4-(isopropylcarbamoyl)cyclohexyl)-6-(2-(piperidin-1-yl)ethoxy)-1H-imidazo[4,5-c]pyridin-2(3H)-ylidene)benzamide] | < 50
13 | CC(C)S(=O)(=O)N1CCC(n2/c(=N/C(=O)c3ccccc3)[nH]c3cnc(OCCN4CCCCC4)cc32)CC1 [Example 69, (E)-N-(1-(1-(Isopropylsulfonyl)piperidin-4-yl)-6-(2-(piperidin-1-yl)ethoxy)-1H-imidazo[4,5-c]pyridin-2(3H)-ylidene)benzamide] | 100 to 1000

Next, values leading:

Row | IC50 [nM] | SMILES
14 | < 50 | CC(C)(O)C1CCN(CCOc2cc3c(cn2)[nH]/c(=N\C(=O)c2cccc(F)c2)n3[C@H]2CC[C@@H](C(=O)N3CC(F)(F)C3)CC2)CC1 [Example 80, (E)-N-(1-(cis-4-(3,3-Difluoroazetidine-1-carbonyl)cyclohexyl)-6-(2-(4-(2-hydroxypropan-2-yl)piperidin-1-yl)ethoxy)-1H-imidazo[4,5-c]pyridin-2(3H)-ylidene)-3-fluorobenzamide]
15 | < 50 | CC(C)NC(=O)[C@H]1CC[C@@H](n2/c(=N/C(=O)c3ccc(F)cc3)[nH]c3ccc(CN4CCN(CCO)CC4)cc32)CC1 [Example 173, (E)-4-Fluoro-N-(6-((4-(2-hydroxyethyl)piperazin-1-yl)methyl)-1-(cis-4-(isopropylcarbamoyl)cyclohexyl)-1H-benzo[d]imidazol-2(3H)-ylidene)benzamide]
16 | < 50 | CCNC(=O)[C@H]1CC[C@@H](n2/c(=N/C(=O)c3ccccc3)[nH]c3cnc(OCCN4CCCCC4)cc32)CC1 [Example 26]
17 | < 50 | C[C@@H]1CNCCN1C(=O)[C@H]1CC[C@@H](n2/c(=N/C(=O)c3ccc(C#N)cc3)[nH]c3cnc(OCCN4CCCCC4)cc32)CC1 [Example 58, (E)-4-Cyano-N-(1-(cis-4-((R)-2-methylpiperazine-1-carbonyl)cyclohexyl)-6-(2-(piperidin-1-yl)ethoxy)-1H-imidazo[4,5-c]pyridin-2(3H)-ylidene)benzamide]
18 | < 50 | CC(C)NC(=O)[C@H]1CC[C@@H](n2/c(=N/C(=O)c3cccnc3)[nH]c3cnc(OCCN4CCCCC4)cc32)CC1 [Example 96, (E)-N-(1-(cis-4-(Isopropylcarbamoyl)cyclohexyl)-6-(2-(piperidin-1-yl)ethoxy)-1H-imidazo[4,5-c]pyridin-2(3H)-ylidene)nicotinamide]
19 | < 50 | CCOC(=O)[C@H]1CC[C@@H](n2c(NC(=O)c3ccc(F)cc3)nc3ccc(CO)cc32)CC1 [Example 6, cis-Ethyl 4-(2-(4-fluorobenzamido)-6-(hydroxymethyl)-1H-benzo[D]imidazol-1-yl)cyclohexanecarboxylate]
20 | < 50 | C=CCNS(=O)(=O)c1cc(C(=O)Nc2nc3ccc(CN4CCCCC4)cc3n2[C@H]2CC[C@@H](C(=O)OC)CC2)ccc1F [Example 33, cis-Methyl 4-(2-(3-(N-allylsulfamoyl)-4-fluorobenzamido)-6-(piperidin-1-ylmethyl)-1H-benzo[d]imidazol-1-yl)cyclohexanecarboxylate]
21 | < 50 | CC(C)NC(=O)[C@H]1CC[C@@H](n2/c(=N/C(=O)c3cccc(C#N)c3)[nH]c3cnc(OCCN4CCCCC4)cc32)CC1 [Example 91, (E)-3-Cyano-N-(1-(cis-4-(isopropylcarbamoyl)cyclohexyl)-6-(2-(piperidin-1-yl)ethoxy)-1H-imidazo[4,5-c]pyridin-2(3H)-ylidene)benzamide]
22 | < 50 | CC(C)NC(=O)[C@H]1CC[C@@H](n2/c(=N/C(=O)c3ccc(F)c(C(F)(F)F)c3)[nH]c3ccc(CN4CCC(C(C)(C)O)CC4)cc32)CC1 [Example 148, (E)-4-Fluoro-N-(6-((4-(2-hydroxypropan-2-yl)piperidin-1-yl)methyl)-1-(cis-4-(isopropylcarbamoyl)cyclohexyl)-1H-benzo[d]imidazol-2(3H)-ylidene)-3-(trifluoromethyl)benzamide]
23 | < 50 | CC(C)(C)NC(=O)[C@H]1CC[C@@H](n2/c(=N/C(=O)c3ccc(F)cc3)[nH]c3ccc(CN4CCC(C(C)(C)O)CC4)cc32)CC1 [Example 215, (E)-N-(1-(cis-4-(tert-Butylcarbamoyl)cyclohexyl)-6-((4-(2-hydroxypropan-2-yl)piperidin-1-yl)methyl)-1H-benzo[d]imidazol-2(3H)-ylidene)-4-fluorobenzamide]
24 | < 50 | O=C(/N=c1\[nH]c2ccc(CN3CCOCC3)cc2n1[C@H]1CC[C@@H](C(=O)N2CCNCC2)CC1)c1ccc(F)cc1 [Example 204, (E)-4-Fluoro-N-(6-(morpholinomethyl)-1-(cis-4-(piperazine-1-carbonyl)cyclohexyl)-1H-benzo[d]imidazol-2(3H)-ylidene)benzamide]
25 | < 50 | CC(C)NC(=O)[C@H]1CC[C@@H](n2/c(=N/C(=O)c3ccc(F)cc3)[nH]c3cnc(O)cc32)CC1 [Example 162, (E)-4-Fluoro-N-(6-hydroxy-1-(cis-4-(isopropylcarbamoyl)cyclohexyl)-1H-imidazo[4,5-c]pyridin-2(3H)-ylidene)benzamide]
26 | < 50 | NC(=O)[C@H]1CC[C@@H](n2/c(=N/C(=O)c3ccc(F)cc3)[nH]c3ccc(CN4CCOCC4)cc32)CC1 [Example 205, (E)-N-(1-(cis-4-Carbamoylcyclohexyl)-6-(morpholinomethyl)-1H-benzo[d]imidazol-2(3H)-ylidene)-4-fluorobenzamide]
27 | < 50 | CC(C)NC(=O)[C@H]1CC[C@@H](n2/c(=N/C(=O)c3ccc(F)cc3)[nH]c3cnc(NCC(C)(C)O)cc32)CC1 [Example 226, (E)-4-Fluoro-N-(6-(2-hydroxy-2-methylpropylamino)-1-(cis-4-(isopropylcarbamoyl)cyclohexyl)-1H-imidazo[4,5-c]pyridin-2(3H)-ylidene)benzamide]

From patent publication US9115127B2 (AMGEN INC., priority 2010, dated 2015)
